From patent publication US4440770A, “Diuretic, hypotensive and antiedemic quinoline oximes” (Mochida Seiyaku Kabushiki Kaisha, priority 1980, dated 1984)

Legend:
[1] = Properties of respective derivatives (solubility); format: physicochemical
rats = assay: Diuretic effect in rats; format: in vivo, Wister strain male rats; conditions: Rattus norvegicus, po, 5 h, urine volume up to 5 hours, % of control; for response vs control in vivo at 5 mg/kg: dosage 5 mg/kg; for response vs control in vivo at 10 mg/kg: dosage 10 mg/kg; for response vs control in vivo at 20 mg/kg: dosage 20 mg/kg; for response vs control in vivo at 2.5 mg/kg: dosage 2.5 mg/kg; for response vs control in vivo at 50 mg/kg: dosage 50 mg/kg
Protocol: Wister strain male rats weighing about 200 g were starved overnight and each compound of this invention suspended in 25 ml/kg of physiological saline were administered orally to the 5 animals in each group, and the diuretic effect up to 5 hours after the administration was measured. The diuretic effect is expressed as the average urine volume (%) of the treated group divided by that of the control group.

[2] = system: Carrageenin-Induced Foot Edema; assay: Inhibition for carrageenin-induced foot edema in rats; format: in vivo, Wister strain male rats; conditions: 1 hour before carrageenin, paw volume 3 hours after, probit method; for ED30: Rattus norvegicus, po, read-out: ED30 (dosage for 30% inhibition of edema)
Protocol: 10 Wister strain male rats weighing about 120 g were used in each group. Each compound of this invention was suspended in a 5% aqueous arabic gum solution and administered orally to the animals. One hour after the administration, 0.1 ml of a 1% solution of carrageenin in physiological saline as a phlogistic agent was subcutaneously injected into the right hind paw of the rats which had been shaven previously. The volume of the right hind paw was measured before the administration of the phlogistic agent and 3 hours after the administration. The intensity of edema expressed as percent increase in the foot volume was calculated from the […] (1) and the percent inhibition of edema was calculated from the equation (2). [formula]
The effective dosage of each compound for inhibiting edema was expressed as ED30 (mg/kg) by calculating the dosage for 30% inhibition from the percent inhibition of edema according to the probit method.

[3] = Acute oral toxicity in mice; conditions: mouse, in vivo, mortality 7 days after administration
Protocol: 10 ddY Strain male mice weighing about 20 g were used in each group. Each compound of this invention was suspended in a 5% aqueous gum arabic solution and administered orally. The mortality rate (%) was determined from the number of dead animals 7 days after the administration, and the dosage corresponding to 50% mortality was calculated and expressed as LD50 (mg/kg).

Structure (SMILES) | Solubility in methanol, acetone and chloroform [1] | Solubility in water and hexane [1] | response vs control in vivo at 5 mg/kg (rats) [%] | response vs control in vivo at 10 mg/kg (rats) [%] | response vs control in vivo at 20 mg/kg (rats) [%] | ED30 [2] [mg/kg] | LD50 at 168 h [3] [mg/kg] | response vs control in vivo at 2.5 mg/kg (rats) [%] | response vs control in vivo at 25 mg/kg (rats; dosage 25 mg/kg) [%] | response vs control in vivo at 50 mg/kg (rats) [%] | Solubility in ethanol and dichloromethane [1] | response vs control in vivo at 0.5 mg/kg (rats; dosage .5 mg/kg (so in the source)) [%] | ED30 (dosage for 30% inhibition of edema) ([2]; oral) [mg/kg]
CC(=O)N1CCC(=NO)c2cc(Cl)ccc21 [Compound I, 6-Chloro-4-oximino-1-acetyl-1,2,3,4-tetrahydroquinoline] | easily soluble | Sparingly soluble | 131 | 186 | 260 | 39 | > 5000 | – | – | – | – | – | –
CCC(=O)N1CCC(=NO)c2cc(Cl)ccc21 [Compound II, 6-Chloro-4-oximino-1-propionyl-1,2,3,4-tetrahydroquinoline] | easily soluble | Sparingly soluble | 304 | 410 | – | 8.8 | 3490 | 253 | – | – | – | – | –
CCCC(=O)N1CCC(=NO)c2cc(Cl)ccc21 [Compound III, 6-Chloro-4-oximino-1-butyryl-1,2,3,4-tetrahydroquinoline] | easily soluble | Sparingly soluble | 122 | 172 | 240 | 33 | > 5000 | – | – | – | – | – | –
CC(C)C(=O)N1CCC(=NO)c2cc(Cl)ccc21 [Compound IV, 6-Chloro-4-oximino-1-isobutyryl-1,2,3,4-tetrahydroquinoline] | easily soluble | Sparingly soluble | – | – | – | 87 | > 5000 | – | 119 | 211 | – | – | –
CCCCC(=O)N1CCC(=NO)c2cc(Cl)ccc21 [Compound V, 6-Chloro-4-oximino-1-valeryl-1,2,3,4-tetrahydroquinoline] | easily soluble | Sparingly soluble | – | – | – | 140 | > 5000 | – | – | 209 | – | – | –
CC(C)CC(=O)N1CCC(=NO)c2cc(Cl)ccc21 [Compound VI, 6-Chloro-4-oximino-1-isovaleryl-1,2,3,4-tetrahydroquinoline] | easily soluble | Sparingly soluble | – | – | – | 105 | > 5000 | – | – | 196 | – | – | –
O=C(Cc1ccccc1)N1CCC(=NO)c2cc(Cl)ccc21 [Compound VII, 6-Chloro-4-oximino-1-phenylacetyl-1,2,3,4-tetrahydroquinoline] | easily soluble | Sparingly soluble | – | – | – | 140 | > 5000 | – | – | 202 | – | – | –
O=C(C=Cc1ccccc1)N1CCC(=NO)c2cc(Cl)ccc21 [Compound VIII, 6-Chloro-4-oximino-1-cinnamoyl-1,2,3,4-tetrahydroquinoline] | easily soluble | Sparingly soluble | – | – | – | 44 | > 5000 | – | – | 228 | – | – | –
COC(=O)N1CCC(=NO)c2cc(Cl)ccc21 [Compound X, 6-Chloro-4-oximino-1-methoxycarbonyl-1,2,3,4-tetrahydroquinoline] | – | Sparingly soluble | 306 | 371 | – | 14 | 4470 | 188 | – | – | soluble | – | –
COC(=O)N1CCC(=NO)c2cc(Br)ccc21 [Compound XI, 6-Bromo-4-oximino-1-methoxycarbonyl-1,2,3,4-tetrahydroquinoline] | – | Sparingly soluble | – | 293 | – | 83 | > 5000 | – | – | – | soluble | 152 | –
CCOC(=O)N1CCC(=NO)c2cc(F)ccc21 [Compound XII, 6-Fluoro-4-oximino-1-ethoxycarbonyl-1,2,3,4-tetrahydroquinoline] | – | Sparingly soluble | – | 180 | 285 | 86 | > 5000 | – | – | – | soluble | – | –
CCOC(=O)N1CCC(=NO)c2cc(Cl)ccc21 [Compound XIII, 6-Chloro-4-oximino-1-ethoxycarbonyl-1,2,3,4-tetrahydroquinoline] | – | Sparingly soluble | – | 204 | 310 | 49 | > 5000 | – | – | – | soluble | – | –
CCC(=O)N1CCC(=NO)c2cc(F)ccc21 [Compound XV, 6-Fluoro-4-oximino-1-propionyl-1,2,3,4-tetrahydroquinoline] | – | Sparingly soluble | 347 | 425 | – | 9.3 | 3440 | 209 | – | – | soluble | – | –
NS(=O)(=O)c1cc(C(=O)O)c(NCc2ccco2)cc1Cl [Furosemide, reference compound] | – | – | 133 | – | – | – | – | – | – | – | – | – | –
COC(=O)N1CCC(=NO)c2cc(F)ccc21 [IX, 6-Fluoro-4-oximino-1-methoxycarbonyl-1,2,3,4-tetrahydroquinoline] | – | Sparingly soluble | 309 | 408 | – | 22 | > 5000 | 251 | – | – | soluble | – | –
CCCCC1C(=O)N(c2ccccc2)N(c2ccccc2)C1=O [Phenylbutazone, reference compound] | – | – | – | – | – | 65 | – | – | – | – | – | – | 63
CC(=O)N1CCC(=NO)c2cc(Br)ccc21 [XIV, 6-Bromo-4-oximino-1-acetyl-1,2,3,4-tetrahydroquinoline] | – | Sparingly soluble | – | – | 234 | 182 | > 5000 | – | – | – | soluble | – | –
CNC(=O)N1CCC(=NO)c2cc(Cl)ccc21 [XIX, 6-Chloro-4-oximino-1-methylcarbamoyl-1,2,3,4-tetrahydroquinoline] | – | Sparingly soluble | – | – | – | 62 | > 5000 | – | – | 180 | soluble | – | –
CCC(=O)N1CCC(=NO)c2cc(Br)ccc21 [XVI, 6-Bromo-4-oximino-1-propionyl-1,2,3,4-tetrahydroquinoline] | – | Sparingly soluble | 243 | 380 | – | 16 | 4710 | – | – | – | soluble | – | –
CC(C)C(=O)N1CCC(=NO)c2cc(Br)ccc21 [XVII, 6-Bromo-4-oximino-1-isobutyryl-1,2,3,4-tetrahydroquinoline] | – | Sparingly soluble | – | – | – | 102 | > 5000 | – | – | 173 | soluble | – | –
O=C(C=Cc1ccccc1)N1CCC(=NO)c2cc(Br)ccc21 [XVIII, 6-Bromo-4-oximino-1-cinnamoyl-1,2,3,4-tetrahydroquinoline] | – | Sparingly soluble | – | – | – | 133 | > 5000 | – | – | 203 | soluble | – | –
CNC(=O)N1CCC(=NO)c2cc(Br)ccc21 [XX, 6-Bromo-4-oximino-1-methylcarbamoyl-1,2,3,4-tetrahydroquinoline] | – | Sparingly soluble | – | – | – | 95 | > 5000 | – | – | 197 | soluble | – | –
CN(C)C(=O)N1CCC(=NO)c2cc(F)ccc21 [XXI, 6-Fluoro-4-oximino-1-dimethylcarbamoyl-1,2,3,4-tetrahydroquinoline] | – | Sparingly soluble | – | 128 | 209 | 141 | > 5000 | – | – | – | soluble | – | –
